Assay results from US20140147853A1, “Method for Predicting Respiratory Toxicity of Compounds” (priority 2009, published 2014).
“Also recorded” adds a separate entry of the source. Like-named read-outs stand apart in the source and are kept apart here.

What was measured:
Bax = experiment: qRT-PCR gene expression in EPIAIRWAY cells; format: cell-based, human; settings: 24 hours
Experimental: (§1) The dosing regimen used here brackets this dose. […] Again, the dosing regimen used brackets this concentration. […] This calculates to 750 ng/cm^2.

Bcl2 = experiment: qRT-PCR gene expression in EPIAIRWAY cells; format: cell-based, human; settings: 24 hours
Experimental: as §1

IL-6 = experiment: qRT-PCR gene expression in EPIAIRWAY cells; format: cell-based, human; settings: for IL-6 mRNA expression vs control: 24 hours, 1, 10, 30, 100 dosed
Experimental: as §1

TNF-α = experiment: qRT-PCR gene expression in EPIAIRWAY cells; format: cell-based, human; settings: for TNF-α mRNA expression vs control: 1, 10, 30, 100 dosed
Experimental: as §1

[1] = test system: human fetal lung fibroblasts; settings: Yang et al., 1997; cited from earlier work
EPIAIRWAY cells [2] = experiment: Intracellular glutathione (GSH) levels, oxidative stress; format: cell-based, human
Experimental: as §1
Intracellular glutathione levels were determined essentially as described by Griffith (1980) with modifications. At the end of the exposure period, the medium was removed from the cells and metaphosphoric acid (MPA) was added to each well. Plates were then shaken for 5 min at room temperature and stored at −20° C. until needed.

EPIAIRWAY cells [3] = experiment: Cell viability by MTT reduction in EPIAIRWAY 3-D model; format: cell-based, human
Experimental: as §1
Cell viability was determined by measuring the reduction of 3-[4,5-dimethylthiazol-2-yl]2,5-diphenyltetrazolium bromide (MTT). The cells in each well were evaluated for their ability to reduce soluble-MTT (yellow) to formazan-MTT (purple). An MTT stock solution was prepared […] complete medium just prior to use and warmed to 37° C. in a water bath. Once the media and dosing solution was removed from all wells, MTT solution was added to the basal side of each well and the plate was allowed to incubate at 37° C. for 3-4 hr. Media was removed and the purple formazan product was extracted using anhydrous isopropanol applied to both the apical and basal side of the cells. Sample absorbance was read at 570 nm and reference absorbance at 650 nm with a Packard Fusion or equivalent plate reader.

EPIAIRWAY cells [4] = experiment: Histology of EPIAIRWAY 3-D model (structural integrity); format: cell-based, human
Experimental: as §1
Cells were isolated using a 3 mm biopsy punch (Miltex, York, PA) and immediately placed in […] 10% Neutral Buffered Formalin (Fisher Diagnostics, Middletown, Va.). Histology was performed essentially as described by Sheehan and Hrapchak (1980). Briefly, cells were processed and embedded into paraffin wax blocks. The blocks were sectioned at 3 μm, adhered to slides and stained with hematoxylin and eosin. Photos were taken at 10× magnification.

human epithelial cells = settings: Han et al., 2007; cited from earlier work
[5] = Literature: phase 1 study of inhaled doxorubicin; format: in vivo, human; settings: calculated from 7.5 mg/m^2
Experimental: as §1

IL-8 = experiment: qRT-PCR gene expression in EPIAIRWAY cells; format: cell-based, human; settings: 24 hours
Experimental: as §1

IL-1α = experiment: qRT-PCR gene expression in EPIAIRWAY cells; format: cell-based, human; settings: 24 hours; 1, 10, 30, 100 dosed
Experimental: as §1

[6] = every 3 weeks, phase 1 study (Otterson 2007); cited from earlier work
[7] = test system: fetal human lung cells and human lung fibroblasts; settings: Sakaguchi 1984, Lehnert 2001; cited from earlier work
[8] = test system: human lung epithelia and fibroblasts; settings: in vitro (Sato 1999, Takamizawa 1999); ~7.1 μM; cited from earlier work
TGF-β = experiment: qRT-PCR gene expression in EPIAIRWAY cells; format: cell-based, human; settings: 24 hours of exposure
Experimental: as §1

EPIAIRWAY cells [9] = experiment: LDH release into the media by EPIAIRWAY cells; format: cell-based, human; settings: 100 μM
From the text: The primary shortcoming of this model system appears to be that the MTT results to not compare well with histology. This may be due to the fact that the basal cell layers have the highest metabolic activity given that they are still rapidly dividing. […] Fortunately, there appears to be a much more concise method to assess cytotoxicity in this model system. Lactate dehydrogenase is a cytosolic enzyme commonly used as a marker for cell membrane permeability, and therefore, cytotoxicity (Davies et al., 1973).

[10] = 24 hours, 1, 10, 30, 100 dosed, >2-fold significant
[11] = any dose (1, 10, 30, 100), 24 and 72 hours
[12] = dose-dependent, 1-100 μM, maximum reached

Experimental for CYP1A1: The three-dimensional in vitro human [sequence] system may be purchased from MatTek (Ashland, Mass.). Cultures are maintained with supplied culture media according to the manufacturer's instructions. Briefly, [sequence] 96-well plates are allowed to equilibrate in 250 μL media for at least 18 hours overnight at 37° C. with 5% CO2 upon arrival. Media is changed every other day if cells are not used immediately after equilibration.
In the Examples described below, dosing solutions were prepared in DPBS (MatTek, Ashland, Mass.). The [sequence] cells were dosed with 100 μL of the following concentrations: 1, 10, 30 and 100 μM bleomycin, cadmium chloride, beryllium sulfate and doxorubicin; 1, 10, 30 and 100 μg/cm^2 silica; and 1, 10, 30 and 100 ng/mL LPS. […] The dosing regimen used here brackets this dose. […] Again, the dosing regimen used brackets this concentration. […] This calculates to 750 ng/cm^2. The concentrations and volumes dosed calculate to 483 ng/cm^2 (1 μM), 4.83 μg/cm^2 (10 μM), 14.5 μg/cm^2 (30 μM) and 48.3 μg/cm^2 (100 μM) doxorubicin, bracketing the safe range. MIN-U-SIL 5 silica, with an average surface area of 5.1 cm^2/g gives the following concentrations dosed: 0.051 cm^2/cm^2 (1 μg/cm^2), 0.51 cm^2/cm^2 (10 μg/cm^2), 1.53 cm^2/cm^2 (30 μg/cm^2) and 5.1 cm^2/cm^2 (100 μg/cm^2). […] In order to analyze the acute response of [sequence] cells to LPS, cells are exposed to LPS concentrations ranging from 1 ng/mL to 100 ng/mL. Following the exposure period, the dosing solutions are removed and cells are analyzed for changes in structure, cell viability, oxidative stress and gene expression.
Total RNA was isolated from [sequence] human respiratory cells by the TRIZOL (Invitrogen, Carlsbad, Calif.) method (Chomczynski and Sacchi, 1987)with modifications. Briefly, cells were punched out using a biopsy punch (Miltex, York, Pa.) and immediately placed in TRIZOL. The samples were then frozen at −80° C. until needed. After thawing, the isolation procedure followed the manufacturer's instructions.
Induction of target gene mRNA was determined as follows, by standard one-step qRT-PCR techniques using multiple internal control genes for normalization with a few modifications (Vandesompele et al, 2002). RT-PCR was performed using the Quantitect® SYBR Green RT-PCR kit (Qiagen, Valencia, Calif.) according to the manufacturer's instructions for 20 μL reactions. All primers were [sequence] Primer Assay (Qiagen, Valencia, Calif.) containing forward and reverse primers in the same tube (see Table 1, below). Briefly, 50 ng of RNA in 20 μL reactions are set up in 384-well RT-PCR plates (Roche Diagnostics Corp., Indianapolis, Ind.) and placed in a [sequence] 480 real time PCR machine (Roche Diagnostics Corp., Indianapolis, Ind.). One-step PCR was set as follows; reverse transcription was 1 cycle of 50° C. for 30 minutes followed by 95° C. for 15 minutes. Amplification was set for 45 cycles of 94° C. for 15 seconds, 55° C. for 20 seconds and 72° C. for 20 seconds. Melting curve was generated by 1 cycle of 95° C. for 5 seconds followed by 65° C. for 1 minute. Data were analyzed using the [sequence] 480 software version 1.5.0.39 (Roche Diagnostics Corp., Indianapolis, Ind.). The expression levels of multiple housekeeping genes were determined and an average fold induction over vehicle was elucidated for each housekeeping gene.

Compound: [Cl][Cd][Cl] [Cadmium chloride, cadmium chloride]
- Bax mRNA expression vs control (Bax; 100 μM): mildly induced
- Bcl2 mRNA expression vs control (Bcl2; 100 μM): mildly induced
- IL-6 mRNA expression vs control (IL-6): substantially induced
- TNF-α mRNA expression vs control (TNF-α; 24 hours): mild induction
- Concentration inducing significant LDH release [1]: 8.75 µM
- CYP1A1 mRNA expression vs control (CYP1A1; [10]): substantially induced
- Effect on intracellular GSH (EPIAIRWAY cells [2]; 24 hours, 1, 10, 30 and 100 μM): no reduction
- Cell viability (MTT) (EPIAIRWAY cells [3]; 100 μM, 24 hours): 56 % of control
- Histology: cell structure (EPIAIRWAY cells [4]; 10 μM, 24 hour exposure): cell loss
- Histology: cell structure (EPIAIRWAY cells [4]; 100 μM, 24 hour exposure): much more noticeable a breakdown of cellular structure
- Histology: cell structure (EPIAIRWAY cells [4]; 24 hours): significant structural breakdown and cell loss
- Concentration exhibiting cytotoxicity (human epithelial cells): 50 µM

Compound: Triton X-100
- Histology: killing of basal cell layers (EPIAIRWAY cells [4]; 0.3%, 24 hours): unable to kill these bottom layers of cells

Compound: COc1cccc2c1C(=O)c1c(O)c3c(c(O)c1C2=O)C[C@@](O)(C(=O)CO)C[C@@H]3O[C@H]1C[C@H](N)[C@H](O)[C@H](C)O1 [Doxorubicin]
- Safe inhalation dose recalculated per area [5]: 750 ng/cm^2
- Ratio of Bax:Bcl2 expression (Bax): decreased
- Bcl2 mRNA expression vs control (Bcl2; 1, 10, 30 and 100 μM): substantially induced
- IL-6 mRNA expression vs control (IL-6): substantially induced
- IL-8 mRNA expression vs control (IL-8; only 1 μM): mildly induced
- IL-1α mRNA expression vs control (IL-1α): substantially induced
- TNF-α mRNA expression vs control (TNF-α; 24 hours): substantially induced
- CYP1A1 mRNA expression vs control (CYP1A1): substantially induced
- Dose identified as safe for inhalation [6]: up to 7.5 mg/m^2
- Intracellular GSH (EPIAIRWAY cells [2]; 100 μM, 72 hours): 10 % of control
- Intracellular GSH (EPIAIRWAY cells [2]; 10, 30 and 100 μM, 24 hours): 80 % of control
- Effect on cell viability (MTT) (EPIAIRWAY cells [3]; 1 μM, either time point (24, 72 hours)): no effect on cell viability
- Cell viability (MTT) (EPIAIRWAY cells [3]; 100 μM, 72 hours): 57 % of control
- Effect on cell viability (MTT) (EPIAIRWAY cells [3]; 24 hours, 1, 10, 30 and 100 μM): not observed
- Histology: cell structure (EPIAIRWAY cells [4]; 24 hours): significant structural breakdown and loss of cells; also recorded: significant structural breakdown and cell loss

Compound: O=S(=O)([O-])[O-].[Be+2] [Beryllium sulfate, beryllium sulfate]
- Bcl2 mRNA expression vs control (Bcl2; 100 μM): mildly induced
- IL-6 mRNA expression vs control (IL-6): substantially induced
- IL-8 mRNA expression vs control (IL-8; 1 and 30 μM): mildly induced
- IL-1α mRNA expression vs control (IL-1α): substantially induced
- TNFα mRNA expression vs control (TNF-α; 100 μM, 24 hours): mildly induced
- CYP1A1 mRNA expression vs control (CYP1A1; [10]): substantially induced
- Intracellular GSH (EPIAIRWAY cells [2]; 1 μM, 72 hours): 65 % of control
- Effect on intracellular GSH (EPIAIRWAY cells [2]; 10 μM, 72 hours): did not have an effect
- Intracellular GSH (EPIAIRWAY cells [2]; 30 μM, 72 hours): 83 % of control
- Intracellular GSH (EPIAIRWAY cells [2]; 100 μM, 72 hours): 71 % of control
- Effect on intracellular GSH (EPIAIRWAY cells [2]; 24 hours, 1, 10, 30 and 100 μM): no effect
- Effect on cell viability (MTT) (EPIAIRWAY cells [3]; [11]): did not reduce cell viability

Compound: [Be+2] [Beryllium]
- Lowest cytotoxic concentration [7]: ≥ 5.5 µM

Compound: lipopolysaccharide [LPS]
- Bcl2 mRNA expression vs control (Bcl2; only 30 and 100 ng/mL): induced
- IL-6 mRNA expression vs control (IL-6): substantial, dose-independant induction
- IL-8 mRNA expression vs control (IL-8; 1, 10, 30, 100 dosed): mild induction
- IL-1α mRNA expression vs control (IL-1α): substantial, dose-independant induction
- TNF-α mRNA expression vs control (TNF-α; 24 hours): substantial, dose-independant induction
- CYP1A1 mRNA expression vs control (CYP1A1; [10]): dose-dependant increase
- Intracellular GSH (EPIAIRWAY cells [2]; 100 ng/mL, 24 hours): 65 % of control
- Effect on cell viability (MTT) (EPIAIRWAY cells [3]; [11]): did not reduce cell viability

Compound: Bleomycin
- Concentration inducing cytokine release while relatively non-toxic [8]: 10 µg/mL
- Ratio of Bax:Bcl2 expression (Bax): decreased
- Bcl2 mRNA expression vs control (Bcl2; 1, 10, 30 and 100 μM): induced
- IL-6 mRNA increase over control tissues (IL-6; [12]): > 20 fold
- IL-8 mRNA expression vs control (IL-8; 1, 10, 30, 100 dosed): induced in a dose-dependent manner
- IL-1α mRNA expression vs control (IL-1α): induced in a dose-dependent manner
- TNF-α mRNA increase over control tissues (TNF-α; [12]): > 20 fold
- TGF-β mRNA expression vs control (TGF-β): induction was not seen
- CYP1A1 mRNA expression vs control (CYP1A1; [10]): greatly induced
- Intracellular GSH (EPIAIRWAY cells [2]; 1 μM, 72 hours): 71 % of control
- Total cellular GSH (EPIAIRWAY cells [2]; 100 μM, 24 hours): 75 % of control
- Effect on cell viability (MTT) (EPIAIRWAY cells [3]; 24 hours, 1, 10, 30 and 100 μM): no effect on viability
- Cell viability (MTT) (EPIAIRWAY cells [3]; 72 hour exposure, 1, 10, 30 and 100 μM dosed): 90 % of control
- Histology: cell structure (EPIAIRWAY cells [4]; 24 hours): significant structural breakdown and cell loss; also recorded: significant structural breakdown and loss of cells
- LDH release into the media, increase compared to control (EPIAIRWAY cells [9]; 24 hours): 292%
- LDH release into the media, increase compared to control (EPIAIRWAY cells [9]; 72 hours): 588%
